For one experiment, the target named is T1, ACOX1 (Homo sapiens, UniProt Q15067).
T1 construct: endogenous in cells
T1 sequence (Q15067 1-660): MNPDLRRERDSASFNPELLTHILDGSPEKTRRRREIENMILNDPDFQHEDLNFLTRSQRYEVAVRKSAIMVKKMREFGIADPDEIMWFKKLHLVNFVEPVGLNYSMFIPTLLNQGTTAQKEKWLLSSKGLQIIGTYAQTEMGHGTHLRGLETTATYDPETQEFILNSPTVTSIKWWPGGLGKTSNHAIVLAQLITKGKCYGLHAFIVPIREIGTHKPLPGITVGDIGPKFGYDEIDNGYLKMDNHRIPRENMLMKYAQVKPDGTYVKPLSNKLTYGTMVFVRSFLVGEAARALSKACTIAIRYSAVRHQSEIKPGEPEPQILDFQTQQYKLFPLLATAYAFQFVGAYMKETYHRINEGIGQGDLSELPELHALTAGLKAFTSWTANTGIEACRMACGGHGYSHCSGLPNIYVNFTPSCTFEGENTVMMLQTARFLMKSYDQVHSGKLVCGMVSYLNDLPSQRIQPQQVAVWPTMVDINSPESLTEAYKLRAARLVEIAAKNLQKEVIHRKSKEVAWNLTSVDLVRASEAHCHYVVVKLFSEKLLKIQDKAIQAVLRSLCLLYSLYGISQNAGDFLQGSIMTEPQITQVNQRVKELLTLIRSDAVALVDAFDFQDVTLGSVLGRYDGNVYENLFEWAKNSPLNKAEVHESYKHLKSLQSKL
Put plainly: Kinobeads two-dose competition binding: ACOX1.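 Further: competition of compounds with immobilized broad-spectrum kinase inhibitor beads in cell lysate at 100 and 1,000 nM, 45 min at 4 °C, bead-bound protein quantified by label-free MS versus DMSO.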 The following applies: sheet CATDS matrix 2; Gene Name ACOX1.

The next experiment has as its target T2, AAK1 (Homo sapiens, UniProt Q2M2I8).
T2 construct: to maximize the representation of endogenous proteins; endogenous in cells
Put plainly: Kinobeads two-dose competition binding: AAK1.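 On all read-outs here: kinobeads competition pulldown from cell lysate, compound preincubated 45 min at 4 °C, bead-bound protein measured by label-free mass spectrometry against DMSO vehicle control.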 The conditions noted are these: for CATDS: sheet CATDS matrix 2, Gene Name AAK1; for potency estimated from few doses: read-out: Kinobeads Drugmatrix - all: apparent Kd, AAK1.

For experiment [1], the target named is T3, ABL1 (Homo sapiens, UniProt P00519). The experiment in a line: Kinobeads two-dose competition binding: ABL1. The conditions noted are these: sheet CATDS matrix 2; Gene Name ABL1.
Experiment [2] concerns the target T4, ABL2 (Homo sapiens, UniProt P42684).
T4 construct: endogenous in cells
The experiment in a line: Kinobeads two-dose competition binding: ABL2. The following applies: sheet CATDS matrix 2; Gene Name ABL2.

Another experiment has as its target T5, ACAD11 (Homo sapiens, UniProt Q709F0).
T5 construct: endogenous in cells
T5 sequence (Q709F0 1-780): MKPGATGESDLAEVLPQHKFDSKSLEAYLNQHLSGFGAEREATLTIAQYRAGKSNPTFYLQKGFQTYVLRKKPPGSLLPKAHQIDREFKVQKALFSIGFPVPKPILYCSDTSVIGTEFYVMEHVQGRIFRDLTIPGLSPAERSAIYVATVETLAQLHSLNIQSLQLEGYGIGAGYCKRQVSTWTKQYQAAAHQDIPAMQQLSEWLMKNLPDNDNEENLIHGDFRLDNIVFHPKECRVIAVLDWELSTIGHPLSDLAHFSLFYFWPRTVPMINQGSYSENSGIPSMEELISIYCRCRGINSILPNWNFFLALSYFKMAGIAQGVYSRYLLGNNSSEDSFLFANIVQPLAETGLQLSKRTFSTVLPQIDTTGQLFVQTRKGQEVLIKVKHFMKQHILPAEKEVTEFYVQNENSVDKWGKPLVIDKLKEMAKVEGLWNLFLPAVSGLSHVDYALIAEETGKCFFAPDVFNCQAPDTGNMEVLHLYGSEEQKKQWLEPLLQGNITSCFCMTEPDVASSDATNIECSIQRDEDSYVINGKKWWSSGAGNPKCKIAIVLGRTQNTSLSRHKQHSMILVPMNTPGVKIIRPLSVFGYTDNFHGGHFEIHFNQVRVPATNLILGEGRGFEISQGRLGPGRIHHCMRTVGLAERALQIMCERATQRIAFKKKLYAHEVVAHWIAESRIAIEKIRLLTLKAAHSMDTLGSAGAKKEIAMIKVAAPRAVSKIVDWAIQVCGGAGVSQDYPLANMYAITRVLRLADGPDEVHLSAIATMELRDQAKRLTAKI
The experiment in a line: Kinobeads two-dose competition binding: ACAD11. The conditions noted are these: sheet CATDS matrix 2; Gene Name ACAD11.

A further experiment addresses PKN3 (Homo sapiens, UniProt Q6P5Z2). Put plainly: NanoBRET in-cell target engagement in HEK293T cells: PKN3.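 Further: Full-length PKN3 with C-terminal NanoLuc expressed in HEK293T cells, serial inhibitor dilutions competing against Kinase Tracer K5 at 500 nM, BRET read after 2 h at 37 °C.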 It counts as cell-based. Further details: full-length PKN3, CSNK2A1 or CSNK2A2 ORF; host or cells: HEK293T.
Experiment [3] deals with T3, ABL1. The experiment in a line: Kinobeads two-dose competition binding: ABL1. The following applies: sheet "Kinobeads Drugmatrix - all"; unit inferred; read-out: Kinobeads Drugmatrix - all: apparent Kd, ABL1.
In experiment [4] the target is T4, ABL2. The experiment in a line: Kinobeads two-dose competition binding: ABL2. The conditions noted are these: sheet "Kinobeads Drugmatrix - all"; unit inferred; read-out: Kinobeads Drugmatrix - all: apparent Kd, ABL2.
Setting [5] is: HEK293T cells, in-cell target engagement, read-out: IC50 PKN3 NanoBRET.
The mark [6] stands for this setting: average of replicates, read-out: Average of IC50 values NanoBRET PKN3.
Setting [7] is: biological replicate number 1, read-out: Rep 1 IC50 NanoBRET PKN3.
[8] abbreviates: biological replicate number 2, read-out: Rep 2 IC50 NanoBRET PKN3.
Where [9] appears, read: biological replicate number 3, read-out: Rep 3 IC50 NanoBRET PKN3.
[10] abbreviates: biological replicate number 4, read-out: Rep 4 IC50 NanoBRET PKN3.

Like-named read-outs stand apart in the source and are kept apart here.

T2 sequence (Q2M2I8 whole entry): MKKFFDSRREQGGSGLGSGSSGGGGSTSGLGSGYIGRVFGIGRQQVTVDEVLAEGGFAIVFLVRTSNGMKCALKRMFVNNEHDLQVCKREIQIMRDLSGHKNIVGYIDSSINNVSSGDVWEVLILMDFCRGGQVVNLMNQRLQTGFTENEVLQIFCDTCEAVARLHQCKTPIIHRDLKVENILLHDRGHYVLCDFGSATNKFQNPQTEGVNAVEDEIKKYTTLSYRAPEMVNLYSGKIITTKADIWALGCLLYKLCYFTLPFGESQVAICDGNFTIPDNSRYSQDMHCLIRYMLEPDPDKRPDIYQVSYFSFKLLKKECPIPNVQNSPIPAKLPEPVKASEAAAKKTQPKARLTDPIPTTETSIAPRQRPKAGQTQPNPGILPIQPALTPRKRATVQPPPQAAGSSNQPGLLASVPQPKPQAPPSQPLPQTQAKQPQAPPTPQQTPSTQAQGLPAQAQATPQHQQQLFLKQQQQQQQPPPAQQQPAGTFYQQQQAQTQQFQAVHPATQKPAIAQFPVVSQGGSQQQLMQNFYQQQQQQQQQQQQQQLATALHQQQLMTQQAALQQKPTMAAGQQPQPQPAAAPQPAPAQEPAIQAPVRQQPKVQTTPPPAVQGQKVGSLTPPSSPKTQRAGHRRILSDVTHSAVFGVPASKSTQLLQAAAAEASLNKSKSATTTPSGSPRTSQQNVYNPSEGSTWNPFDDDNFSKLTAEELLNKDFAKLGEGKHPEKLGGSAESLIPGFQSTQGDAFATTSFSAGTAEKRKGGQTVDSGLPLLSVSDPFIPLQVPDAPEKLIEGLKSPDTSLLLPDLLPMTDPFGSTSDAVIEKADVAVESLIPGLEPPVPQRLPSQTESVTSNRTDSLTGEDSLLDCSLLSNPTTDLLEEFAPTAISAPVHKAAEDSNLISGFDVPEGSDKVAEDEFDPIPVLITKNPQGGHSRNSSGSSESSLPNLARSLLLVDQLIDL
T4 sequence (P42684 whole entry): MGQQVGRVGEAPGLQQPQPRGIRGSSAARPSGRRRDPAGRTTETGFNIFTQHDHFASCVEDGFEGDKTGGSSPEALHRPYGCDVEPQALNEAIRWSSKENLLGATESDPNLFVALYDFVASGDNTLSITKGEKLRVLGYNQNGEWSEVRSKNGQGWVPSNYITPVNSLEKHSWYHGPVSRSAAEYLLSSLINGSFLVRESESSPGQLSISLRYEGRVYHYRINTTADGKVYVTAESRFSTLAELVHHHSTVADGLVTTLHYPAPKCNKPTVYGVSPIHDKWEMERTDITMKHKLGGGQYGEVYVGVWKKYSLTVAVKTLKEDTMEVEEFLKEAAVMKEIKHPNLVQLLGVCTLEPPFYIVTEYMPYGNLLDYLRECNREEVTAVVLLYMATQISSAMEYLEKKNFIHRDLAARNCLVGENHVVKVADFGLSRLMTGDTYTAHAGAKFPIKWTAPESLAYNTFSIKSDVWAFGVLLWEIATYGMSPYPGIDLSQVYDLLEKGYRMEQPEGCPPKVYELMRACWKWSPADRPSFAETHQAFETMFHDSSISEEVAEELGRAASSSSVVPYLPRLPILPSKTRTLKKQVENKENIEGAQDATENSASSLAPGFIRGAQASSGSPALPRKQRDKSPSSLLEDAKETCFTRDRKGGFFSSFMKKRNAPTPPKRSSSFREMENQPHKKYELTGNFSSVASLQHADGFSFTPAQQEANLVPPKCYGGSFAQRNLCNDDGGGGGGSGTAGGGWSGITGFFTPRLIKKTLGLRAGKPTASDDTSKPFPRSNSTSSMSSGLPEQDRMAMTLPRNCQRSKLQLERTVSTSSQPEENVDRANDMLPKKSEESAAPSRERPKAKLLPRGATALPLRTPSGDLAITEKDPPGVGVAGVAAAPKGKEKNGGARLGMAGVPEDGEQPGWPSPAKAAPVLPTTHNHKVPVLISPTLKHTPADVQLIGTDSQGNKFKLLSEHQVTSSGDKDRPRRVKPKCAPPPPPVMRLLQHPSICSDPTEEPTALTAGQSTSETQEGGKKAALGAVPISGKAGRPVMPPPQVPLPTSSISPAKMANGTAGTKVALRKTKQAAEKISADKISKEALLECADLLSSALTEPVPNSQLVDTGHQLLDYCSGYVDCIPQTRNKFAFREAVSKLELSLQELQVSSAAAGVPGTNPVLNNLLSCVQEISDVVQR
Sequence of PKN3 (Q6P5Z2 whole entry): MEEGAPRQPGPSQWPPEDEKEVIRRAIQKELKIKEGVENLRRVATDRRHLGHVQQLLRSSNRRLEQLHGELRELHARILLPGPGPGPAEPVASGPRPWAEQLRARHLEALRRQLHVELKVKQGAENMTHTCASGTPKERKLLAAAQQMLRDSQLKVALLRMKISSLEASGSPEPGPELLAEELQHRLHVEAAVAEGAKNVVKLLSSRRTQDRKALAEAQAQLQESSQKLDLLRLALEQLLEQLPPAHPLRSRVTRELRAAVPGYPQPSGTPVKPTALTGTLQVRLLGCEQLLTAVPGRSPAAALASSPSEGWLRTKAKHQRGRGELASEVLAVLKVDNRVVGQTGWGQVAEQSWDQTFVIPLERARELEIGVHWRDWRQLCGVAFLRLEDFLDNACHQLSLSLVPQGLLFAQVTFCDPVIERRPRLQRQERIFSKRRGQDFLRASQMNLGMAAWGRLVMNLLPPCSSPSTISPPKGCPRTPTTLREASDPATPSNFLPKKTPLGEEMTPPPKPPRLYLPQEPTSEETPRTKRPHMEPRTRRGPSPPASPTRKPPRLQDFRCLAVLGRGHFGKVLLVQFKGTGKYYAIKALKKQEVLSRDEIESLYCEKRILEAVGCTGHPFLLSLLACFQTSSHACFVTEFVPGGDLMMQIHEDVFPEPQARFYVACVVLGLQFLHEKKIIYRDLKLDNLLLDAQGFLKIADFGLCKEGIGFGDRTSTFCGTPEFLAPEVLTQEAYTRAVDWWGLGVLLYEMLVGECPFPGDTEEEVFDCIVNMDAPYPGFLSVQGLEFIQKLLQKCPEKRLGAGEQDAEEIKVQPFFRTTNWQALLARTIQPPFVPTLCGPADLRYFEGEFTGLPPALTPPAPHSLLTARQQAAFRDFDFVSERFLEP
T3 sequence (P00519 28-1130 limits assumed): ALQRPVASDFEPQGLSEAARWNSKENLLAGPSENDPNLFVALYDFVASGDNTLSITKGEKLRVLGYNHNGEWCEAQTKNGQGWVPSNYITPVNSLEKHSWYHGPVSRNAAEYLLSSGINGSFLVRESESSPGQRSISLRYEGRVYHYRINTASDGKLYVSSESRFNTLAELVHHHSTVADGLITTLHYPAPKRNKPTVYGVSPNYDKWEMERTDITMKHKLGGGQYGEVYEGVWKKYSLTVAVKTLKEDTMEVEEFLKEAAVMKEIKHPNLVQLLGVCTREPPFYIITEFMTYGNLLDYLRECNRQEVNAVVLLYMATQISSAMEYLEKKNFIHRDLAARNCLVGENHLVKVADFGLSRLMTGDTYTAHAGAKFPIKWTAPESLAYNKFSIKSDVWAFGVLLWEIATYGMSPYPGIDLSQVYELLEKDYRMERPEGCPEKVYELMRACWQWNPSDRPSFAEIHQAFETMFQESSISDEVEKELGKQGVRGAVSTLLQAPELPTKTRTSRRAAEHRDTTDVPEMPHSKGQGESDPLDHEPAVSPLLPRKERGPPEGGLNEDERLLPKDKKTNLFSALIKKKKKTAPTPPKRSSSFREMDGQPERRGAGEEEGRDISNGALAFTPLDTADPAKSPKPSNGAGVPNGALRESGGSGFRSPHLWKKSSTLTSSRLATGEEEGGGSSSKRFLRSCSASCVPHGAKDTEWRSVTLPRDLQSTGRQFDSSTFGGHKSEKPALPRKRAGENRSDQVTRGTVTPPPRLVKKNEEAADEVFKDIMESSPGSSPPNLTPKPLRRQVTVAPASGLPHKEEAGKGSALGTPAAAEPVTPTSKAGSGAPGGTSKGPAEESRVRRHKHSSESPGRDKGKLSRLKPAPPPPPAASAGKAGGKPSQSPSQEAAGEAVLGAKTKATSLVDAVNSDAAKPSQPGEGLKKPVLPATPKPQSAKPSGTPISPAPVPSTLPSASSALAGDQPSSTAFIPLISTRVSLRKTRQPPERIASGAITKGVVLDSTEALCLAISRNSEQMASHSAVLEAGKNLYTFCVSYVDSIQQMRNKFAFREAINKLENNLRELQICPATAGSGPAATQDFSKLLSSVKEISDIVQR

For the compound `NC[C@@](O)(c1ccc(Cl)cc1)c1ccc(-c2cn[nH]c2)cc1` [AT-13148, reference compound], the CATDS on ACOX1, at AAK1, on ABL1 [1], on ABL2 [2] and on ACAD11 was 0 each time. In addition, on PKN3 (setting [5]), the IC50 (as a rule, the concentration that gives 50% inhibition) was found to be 2060 nM.
Regarding `COc1cc2nccc(Nc3ccc(Oc4ccccc4)cc3)c2cc1OC` [GI261656A], the CATDS on ACOX1 is listed as 0; on AAK1, 0; at ABL1 [1], 0.04923; on ABL2 [2], 0; at ACAD11, 0. The potency estimated from few doses on ABL1 [3] is 661 nM.
In the case of `Clc1cc(Cl)cc(Nc2ccnc(Nc3cc(Cl)cc(Cl)c3)n2)c1` [GSK175726A], the CATDS is 0 at ACOX1; 0.01178 on AAK1; 0.026 at ABL1 [1]; 0.1551 at ABL2 [2]; 0 at ACAD11. Further, the potency estimated from few doses on ABL1 [3] was 83.2 nM; at ABL2 [4] it was 7.68 nM; on AAK1 (sheet "Kinobeads Drugmatrix - all", unit inferred, same values below 1000 recur in sheet "nanomolar") it was 460 nM.
`COc1cc2ncn(-c3cc(OCCCc4ccccc4)c(C(N)=O)s3)c2cc1OC` [GSK205189A]: the CATDS on ACOX1 turned out to be 0; on AAK1, 0; at ABL1 [1] it was 0; at ABL2 [2] it was 0.03238; at ACAD11 it was 0. On ABL2 [4], the potency estimated from few doses is 956 nM.
Turning to `CCn1c(-c2nonc2N)nc2c(-c3ccccc3)ncc(OCCCN)c21` [GSK260205A], the IC50 on PKN3 (setting [5]) worked out at 74 nM; at PKN3 (setting [6]), 22.3 nM; at PKN3 (setting [7]) it was 73.6 nM; at PKN3 (setting [8]) it was 6.19 nM; on PKN3 (setting [9]), 6.22 nM; at PKN3 (setting [10]), 3.37 nM.
Regarding `CCn1c(-c2nonc2N)nc2c(C#CCN)ncc(OCCCN)c21` [GSK561866B], the IC50 at PKN3 (setting [6]) was found to be 7970 nM; at PKN3 (setting [7]), 12900 nM; on PKN3 (setting [8]), 11200 nM; at PKN3 (setting [9]) it was 4910 nM; at PKN3 (setting [10]), 2820 nM.
The corresponding values for `CCn1c(-c2nonc2N)nc2c(C#CC(C)(C)O)nc(OC[C@@H](N)c3ccccc3)cc21` [GSK938890A] are 97.8 nM, 310 nM, 31.2 nM, 28.1 nM and 22.3 nM.
Regarding `CCn1c(-c2nonc2N)nc2c(C#CC(C)(C)O)nc(CN3CCCC3)cc21` [GSK1000163A], the CATDS at ACOX1, on AAK1, at ABL1 [1], at ABL2 [2] and at ACAD11 was 0 in each case. Moreover, the IC50 stood at 11000 nM at PKN3 (setting [5]); 6970 nM at PKN3 (setting [6]); 11100 nM on PKN3 (setting [7]); 9200 nM at PKN3 (setting [8]); 6130 nM at PKN3 (setting [9]); 1430 nM on PKN3 (setting [10]).
Take `CN1CCc2ccc(Nc3nccc(-c4c(-c5cccc(NC(=O)c6c(F)cccc6F)c5)nc5ccccn45)n3)cc2C1` [GSK1010829B]: the CATDS is on record as 0 on ACOX1; 0 at AAK1; 0 on ABL1 [1]; 0.05238 on ABL2 [2]; 0 on ACAD11. The potency estimated from few doses on ABL1 [3] was over 1000 nM; on ABL2 [4] it was 515 nM.
For the compound `CNC(=O)c1ccccc1Nc1nc(Nc2cccc(CS(C)(=O)=O)c2)ncc1C` [GSK1520489A], the CATDS at ACOX1 amounted to 0; on AAK1, 0; on ABL1 [1] it was 0.01362; on ABL2 [2], 0.01375; at ACAD11, 0. Further, the potency estimated from few doses on ABL1 [3] was 401 nM; on ABL2 [4], 389 nM.
As for `CNC(=O)c1ccccc1Nc1nc(Nc2ccc(N3CCOCC3)cc2)ncc1Cl` [GSK1576028A], the CATDS worked out at 0 on ACOX1; 0.02054 on AAK1; 0 on ABL1 [1]; 0 on ABL2 [2]; 0 on ACAD11. Also, the values for the potency estimated from few doses at ABL1 [3] and on AAK1 were over 1000 nM and 142 nM, respectively.
For `CC(=O)N1CCN(c2ccc(Nc3nccc(-c4sc(C(C)C)nc4-c4cccc(NS(=O)(=O)c5cccc(Cl)c5)c4)n3)cn2)CC1` [GSK1660437A], the CATDS is reported as 0 at ACOX1; 0 on AAK1; 0 on ABL1 [1]; 0.07869 on ABL2 [2]; 0 on ACAD11. In addition, at ABL2 [4], the potency estimated from few doses is 351 nM.
In the case of `COc1cccc2c(-c3ccncc3)c(-c3ccc(F)cc3)nn12` [GW468513X], the IC50 was 910 nM at PKN3 (setting [6]), 2110 nM at PKN3 (setting [7]), 552 nM on PKN3 (setting [8]) and 73.9 nM on PKN3 (setting [10]).
Take `Cc1cccc2c(-c3ccncn3)c(-c3ccc(F)cc3)nn12` [GW515532X]: the IC50 at PKN3 (setting [6]) was 26700 nM; on PKN3 (setting [8]), 922 nM; on PKN3 (setting [10]), 257 nM.
Regarding `Cc1cccc(-c2nc(Nc3ccncc3)c3sccc3n2)n1` [GW869641X], the IC50 on PKN3 (setting [5]) worked out at 4100 nM; on PKN3 (setting [6]) it was 1580 nM; on PKN3 (setting [7]), 4190 nM; at PKN3 (setting [8]), 472 nM; at PKN3 (setting [10]) it was 87.1 nM.
In the case of `CNc1ncc2cc(-c3cc(NC(=O)NCCC(C)(C)C)c(F)cc3C)c(C)nc2n1` [LY3009120, reference compound], the IC50 at PKN3 (setting [6]) amounted to 513 nM; on PKN3 (setting [7]), 538 nM; on PKN3 (setting [8]), 1230 nM; on PKN3 (setting [9]), 111 nM; at PKN3 (setting [10]) it was 173 nM.
`Fc1ccc(-c2c(-c3ccncc3)[nH]c3cccnc23)cc1` [RO1153853-000]: the IC50 on PKN3 (setting [5]) came to 8000 nM; on PKN3 (setting [6]) it was 2360 nM; on PKN3 (setting [7]), 8030 nM; on PKN3 (setting [8]) it was 951 nM; on PKN3 (setting [9]), 164 nM; at PKN3 (setting [10]), 295 nM.
`ON=C1CCc2cc(-c3nc(C4CCNCC4)[nH]c3-c3ccncc3)ccc21` [SB-614067-R]: the IC50 at PKN3 (setting [6]) was determined as 22900 nM; on PKN3 (setting [7]), 19100 nM; on PKN3 (setting [8]), 20600 nM; on PKN3 (setting [9]), 50100 nM; at PKN3 (setting [10]) it was 1840 nM.
The corresponding values for `CCOc1nccc2c1nc(-c1nonc1N)n2CC` [SB-737198] are over 50000 nM, over 50000 nM, over 50000 nM, over 50000 nM and over 50000 nM.

The values above are taken from PMC11062922 (Nature Chemical Biology, 2023).
